Assay results taken from patent US20240383904A1, “HETEROCYCLIC COMPOUNDS” (Hoffmann-La Roche Inc., priority 2021, published 2024).

Molecular target: T1, MAGL (Homo sapiens, UniProt Q99685)
T1 sequence (Q99685 1-303): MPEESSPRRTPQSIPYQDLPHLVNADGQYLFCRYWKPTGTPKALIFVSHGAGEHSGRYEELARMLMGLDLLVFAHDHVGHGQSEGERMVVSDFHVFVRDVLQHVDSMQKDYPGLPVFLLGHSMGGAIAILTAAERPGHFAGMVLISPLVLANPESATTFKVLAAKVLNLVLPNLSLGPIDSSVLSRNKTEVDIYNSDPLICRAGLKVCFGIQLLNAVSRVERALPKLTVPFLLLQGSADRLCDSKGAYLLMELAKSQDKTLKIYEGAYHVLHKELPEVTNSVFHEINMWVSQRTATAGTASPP
Experiment: 2-AG assay: MAGL inhibitory activity by hydrolysis of 2-arachidonoylglycerol to arachidonic acid, followed by mass spectrometry
Type: biochemical
Details: 15 min preincubation, 30 min reaction at RT, 8 μM 2-arachidonoylglycerol

SMILES | IC50 [µM]
O=C1CCC2(CN(C(=O)N3CC4(C3)CN(S(=O)(=O)c3cccc(OC(F)(F)F)c3)C4)C2)N1 [Example 198, 2-[2-[3-(trifluoromethoxy)phenyl]sulfonyl-2,6-diazaspiro[3.3]heptane-6-carbonyl]-2,5-diazaspiro[3.4]octan-6-one] | 0.232
O=C1CCC2(CN(C(=O)N3CC4(C3)CN(S(=O)(=O)c3ccc(OC(F)(F)F)cc3)C4)C2)N1 [Example 199, 2-[2-[4-(trifluoromethoxy)phenyl]sulfonyl-2,6-diazaspiro[3.3]heptane-6-carbonyl]-2,5-diazaspiro[3.4]octan-6-one] | 0.266
O=C1CCC2(CN(C(=O)N3CC4(C3)CN(S(=O)(=O)c3ccccc3OC(F)(F)F)C4)C2)N1 [Example 200, 2-[2-[2-(trifluoromethoxy)phenyl]sulfonyl-2,6-diazaspiro[3.3]heptane-6-carbonyl]-2,5-diazaspiro[3.4]octan-6-one] | 0.116
CNC(=O)c1ccccc1CN1CC2(C1)CN(C(=O)N1CC3(COC(=O)N3)C1)C2 [Example 201, N-methyl-2-[[2-(6-oxo-7-oxa-2,5-diazaspiro[3.4]octane-2-carbonyl)-2,6-diazaspiro[3.3]heptan-6-yl]methyl]benzamide] | 0.165
O=C1CCC2(CN(C(=O)N3CC4(CCN(S(=O)(=O)C56CC(C(F)(F)F)(C5)C6)CC4)C3)C2)N1 [Example 205, 2-[7-[[3-(trifluoromethyl)-1-bicyclo[1.1.1]pentanyl]sulfonyl]-2,7-diazaspiro[3.5]nonane-2-carbonyl]-2,5-diazaspiro[3.4]octan-6-one] | 0.265
O=C1NC2(CO1)CN(C(=O)N1CC3(C1)CN(c1cnc(C(F)(F)F)cn1)C3)C2 [Example 206, 2-[6-[5-(trifluoromethyl)pyrazin-2-yl]-2,6-diazaspiro[3.3]heptane-2-carbonyl]-7-oxa-2,5-diazaspiro[3.4]octan-6-one] | 0.278
O=C1NC2(CO1)CN(C(=O)N1CC3(C1)CN(c1ncc(C(F)(F)F)cn1)C3)C2 [Example 207, 2-[6-[5-(trifluoromethyl)pyrimi-din-2-yl]-2,6-diazaspiro[3.3]heptane-2-carbonyl]-7-oxa-2,5-diazaspiro[3.4]octan-6-one] | 0.414
O=C1COCC2(CN(C(=O)N3CC4(CC(NS(=O)(=O)c5cccc(C(F)(F)F)c5)C4)C3)C2)N1 [Example 208, N-[2-(6-oxo-8-oxa-2,5-diazaspiro[3.5]nonane-2-carbonyl)-2-azaspiro[3.3]heptan-6-yl]-3-(trifluoromethyl)benzene-sulfonamide] | 0.0671
N#Cc1cc(C(F)(F)F)ncc1O[C@H]1CCC2(C1)CN(C(=O)N1CC3(COCC(=O)N3)C1)C2 [Example 214, 5-[[(6S)-2-(6-oxo-8-oxa-2,5-diazaspiro[3.5]nonane-2-carbonyl)-2-azaspiro[3.4]octan-6-yl]oxy]-2-(trifluoromethyl)pyridine-4-carbonitrile] | 0.386

The next compounds have a lower IC50 than those just listed; values first:

IC50 [µM] | SMILES
0.00251 | O=C1NC2(CO1)CN(C(=O)N1CC3(C1)CN(S(=O)(=O)c1ccc(F)cc1C(F)(F)F)C3)C2 [Example 195, 2-[2-[4-fluoro-2-(trifluoromethyl)phenyl]sulfonyl-2,6-diazaspiro[3.3]heptane-6-carbonyl]-7-oxa-2,5-diazaspiro[3.4]octan-6-one]
0.0388 | O=C1NC2(CO1)CN(C(=O)N1CC3(C1)CN(S(=O)(=O)c1cncc(C(F)(F)F)c1)C3)C2 [Example 196, 2-[2-[[5-(trifluoromethyl)-3-pyridyl]sulfonyl]-2,6-diazaspiro[3.3]heptane-6-carbonyl]-7-oxa-2,5-diazaspiro[3.4]octan-6-one]
0.00439 | O=C1NC2(CO1)CN(C(=O)N1CC3(C1)CN(S(=O)(=O)NCC1(C(F)(F)F)CC1)C3)C2 [Example 197, 6-(6-oxo-7-oxa-2,5-diazaspiro[3.4]octane-2-carbonyl)-N-[[1-(trifluoromethyl)cyclopro-pyl]methyl]-2,6-diazaspiro[3.3]heptane-2-sulfonamide]
0.0614 | O=C1NC2(CO1)CN(C(=O)N1CC3(C1)CN(c1ccc(C(F)(F)F)cn1)C3)C2 [Example 202, 2-[6-[5-(trifluoromethyl)-2-pyridyl]-2,6-diazaspiro[3.3]heptane-2-carbonyl]-7-oxa-2,5-diazaspiro[3.4]octan-6-one]
0.0616 | O=C1NC2(CO1)CN(C(=O)N1CC3(C1)CN(c1ncc(C(F)(F)F)cc1F)C3)C2 [Example 203, 2-[6-[3-fluoro-5-(trifluoromethyl)-2-pyridyl]-2,6-diazaspiro[3.3]heptane-2-carbonyl]-7-oxa-2,5-diazaspiro[3.4]octan-6-one]
0.0118 | O=C1NC2(CO1)CN(C(=O)N1CC3(CCN(S(=O)(=O)C45CC(C(F)(F)F)(C4)C5)CC3)C1)C2 [Example 204, 2-[7-[[3-(trifluoromethyl)-1-bicyclo[1.1.1]pentanyl]sulfonyl]-2,7-diazaspiro[3.5]nonane-2-carbonyl]-7-oxa-2,5-diazaspiro[3.4]octan-6-one]
0.00628 | N#Cc1cc(C(F)(F)F)ncc1O[C@H]1CCC2(C1)CN(C(=O)N1CC3(COC(=O)N3)C1)C2 [Example 209, 5-[[(6S)-2-(6-oxo-7-oxa-2,5-diazaspiro[3.4]octane-2-carbonyl)-2-azaspiro[3.4]octan-6-yl]oxy]-2-(trifluoromethyl)pyridine-4-carbonitrile]
0.00084 | N#Cc1cc(C(F)(F)F)ncc1CC1CCC2(C1)CN(C(=O)N1CC3(COC(=O)N3)C1)C2 (stereo not shown) [Example 210, 5-[[2-(6-oxo-7-oxa-2,5-diazaspiro[3.4]octane-2-carbonyl)-2-azaspiro[3.4]octan-6-yl]methyl]-2-(trifluoromethyl)pyridine-4-carbonitrile]
0.00039 | N#Cc1cc(C(F)(F)F)ncc1CC1CC2(C1)CN(C(=O)N1CC3(COC(=O)N3)C1)C2 [Example 211, 5-[[2-(6-oxo-7-oxa-2,5-diazaspiro[3.4]octane-2-carbonyl)-2-azaspiro[3.3]heptan-6-yl]methyl]-2-(trifluoromethyl)pyridine-4-carbonitrile]
0.00046 | N#Cc1cc(C(F)(F)F)ncc1C[C@H]1CCC2(C1)CN(C(=O)N1CC3(COC(=O)N3)C1)C2 [Example 212, 5-[[(6S)-2-(6-oxo-7-oxa-2,5-diazaspiro[3.4]octane-2-carbonyl)-2-azaspiro[3.4]octan-6-yl]methyl]-2-(trifluoromethyl)pyridine-4-carbonitrile]
0.00055 | N#Cc1cc(C(F)(F)F)ncc1C[C@@H]1CCC2(C1)CN(C(=O)N1CC3(COC(=O)N3)C1)C2 [Example 213, 5-[[(6R)-2-(6-oxo-7-oxa-2,5-diazaspiro[3.4]octane-2-carbonyl)-2-azaspiro[3.4]octan-6-yl]methyl]-2-(trifluoromethyl)pyridine-4-carbonitrile]
0.0032 | O=C1CCC2(CN(C(=O)N3CC4(CC(Cc5ccc(S(=O)(=O)C6CC6)cc5)C4)C3)C2)N1 [Example 215, 2-[6-[(4-cyclopropylsulfonylphe-nyl)methyl]-2-azaspiro[3.3]heptane-2-carbonyl]-2,5-diazaspiro[3.4]octan-6-one]
0.0176 | O=C1CCC2(CN(C(=O)N3CC4(CC(Cc5cnn(C(F)(F)F)c5)C4)C3)C2)N1 [Example 216, 2-[6-[[1-(trifluoromethyl)pyrazol-4-yl]methyl]-2-azaspiro[3.3]heptane-2-carbonyl]-2,5-diazaspiro[3.4]octan-6-one]
